In patent US10780090B2, “Heteroaryl compounds useful as inhibitors of SUMO activating enzyme” (Millennium Pharmaceuticals, Inc., priority 2014, dated 2020):
pIC50: −log10 of the molar value.

Biological target: recombinant human SAE enzyme (Homo sapiens (Human), UniProt Q9UBT2)
Experiment: SAE HTRF enzyme assay
Type: biochemical
Settings: for inhibition at 0.111 µM: read-out: Percent Inhibition; for pIC50: class symbols A/B/C; for IC50: SAE inhibition, class symbols, legend in nM
Method in brief: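 Human SAE (0.11 nM) with 0.5 μM ATP, 0.125 μM Sumo-Flag and 0.01 μM Ubc9-GST in HEPES pH 7.5, 5 mM MgCl2, 250 μM GSH; 105 min at 24 °C. Stopped with EDTA; HTRF read after 2 h with Eu-anti-Flag and APC-anti-GST. Percent inhibition or IC50 reported.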

[1] = SAE inhibition at compound concentration 0.111 μM

recombinant human SAE enzyme, sequence (Q9UBT2 whole entry): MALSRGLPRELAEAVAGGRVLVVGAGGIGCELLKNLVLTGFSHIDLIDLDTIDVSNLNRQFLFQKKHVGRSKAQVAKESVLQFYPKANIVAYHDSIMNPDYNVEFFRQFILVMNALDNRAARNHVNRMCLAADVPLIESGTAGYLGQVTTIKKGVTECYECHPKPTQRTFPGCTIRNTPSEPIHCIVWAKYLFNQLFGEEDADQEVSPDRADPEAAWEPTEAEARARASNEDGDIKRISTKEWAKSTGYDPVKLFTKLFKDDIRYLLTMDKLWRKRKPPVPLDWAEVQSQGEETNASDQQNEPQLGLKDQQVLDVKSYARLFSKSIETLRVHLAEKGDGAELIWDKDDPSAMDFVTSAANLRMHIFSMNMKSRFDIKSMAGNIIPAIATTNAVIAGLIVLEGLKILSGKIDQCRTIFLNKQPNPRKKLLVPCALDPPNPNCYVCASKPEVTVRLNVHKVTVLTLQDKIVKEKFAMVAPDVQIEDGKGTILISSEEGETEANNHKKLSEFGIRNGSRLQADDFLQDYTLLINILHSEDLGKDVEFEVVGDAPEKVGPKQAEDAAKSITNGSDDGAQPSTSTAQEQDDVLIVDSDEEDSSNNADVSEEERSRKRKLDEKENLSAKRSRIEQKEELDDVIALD
recombinant human SAE enzyme, sequence (Q9UBE0 whole entry partner): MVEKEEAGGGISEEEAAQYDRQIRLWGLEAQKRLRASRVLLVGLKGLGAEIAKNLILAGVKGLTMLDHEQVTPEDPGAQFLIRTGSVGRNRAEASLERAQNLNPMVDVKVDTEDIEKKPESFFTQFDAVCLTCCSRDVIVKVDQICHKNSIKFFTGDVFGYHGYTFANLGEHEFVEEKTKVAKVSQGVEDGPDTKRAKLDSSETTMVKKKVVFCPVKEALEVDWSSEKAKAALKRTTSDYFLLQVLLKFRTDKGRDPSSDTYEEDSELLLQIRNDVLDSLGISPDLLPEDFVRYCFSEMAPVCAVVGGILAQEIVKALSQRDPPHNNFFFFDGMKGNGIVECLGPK

Row | Structure (SMILES) | inhibition at 0.111 µM (Concentration 0.111 μM) [%] | pIC50 | Percent Inhibition (Concentration 0.111 μM) | Percent Inhibition [1] [%] | IC50 [nM]
1 | NS(=O)(=O)OC[C@H]1C[C@@H](Nc2ncncc2C(=O)c2cc(Cc3ccc(Cl)c(Cl)c3)cs2)C[C@@H]1O [I-104, {(1R,2S,4R)-4-[(5-{[4-(3,4-Dichlorobenzyl)-2-thienyl]carbonyl}pyrimidin-4-yl)amino]-2-hydroxycyclopentyl)methyl sulfamate] | 97 | > 8.00 | – | – | –
2 | NS(=O)(=O)OC[C@H]1C[C@@H](Nc2ncncc2C(=O)c2cc([C@@H]3NCCc4ccc(Cl)nc43)c(Cl)s2)C[C@@H]1O.NS(=O)(=O)OC[C@H]1C[C@@H](Nc2ncncc2C(=O)c2cc([C@H]3NCCc4ccc(Cl)nc43)c(Cl)s2)C[C@@H]1O (mixture of isomers) [I-253, [(1R,2S,4R)-4-{[5-({5-chloro-4-[(8S)-2-chloro-5,6,7,8-tetrahydro-1,7-naphthyridin-8-yl]-2-thienyl}carbonyl)pyrimidin-4-yl]amino}-2-hydroxycyclopentyl]methyl sulfamate and [(1R,2S,4R)-4-{[5-({5-chloro-4-[(8R)-2-chloro-5,6,7,8-tetrahydro-1,7-naphthyridin-8-yl]-2-thienyl}carbonyl)pyrimidin-4-yl]amino}-2-hydroxycyclopentyl]methyl sulfamate] | – | > 8.00 | 100 | – | –
3 | NS(=O)(=O)OC[C@H]1C[C@@H](Nc2ncncc2C(=O)c2cc([C@@H]3OCCc4cc(F)c(F)cc43)c(Cl)s2)C[C@@H]1O (single isomer, unassigned) [I-290b, [(1R,2S,4R)-4-{[5-({5-chloro-4-[(1R)-6,7-difluoro-3,4-dihydro-1H-isochromen-1-yl]-2-thienyl}carbonyl)pyrimidin-4-yl]amino}-2-hydroxycyclopentyl]methyl sulfamate or [(1R,2S,4R)-4-{[5-({5-chloro-4-[(1S)-6,7-difluoro-3,4-dihydro-1H-isochromen-1-yl]-2-thienyl}carbonyl)pyrimidin-4-yl]amino}-2-hydroxycyclopentyl]methyl sulfamate] | – | – | – | 97 | < 10
4 | Cc1sc(C(=O)c2cncnc2N[C@@H]2C[C@H](COS(N)(=O)=O)[C@@H](O)[C@@H]2F)cc1[C@H]1OCCc2ccc(Cl)cc21 (single isomer, unassigned) [I-264b, [(1R,2R,3R,4R)-4-{[5-({4-[(1S)-7-chloro-3,4-dihydro-1H-isochromen-1-yl]-5-methyl-2-thienyl}carbonyl)pyrimidin-4-yl]amino}-3-fluoro-2-hydroxycyclopentyl]methyl sulfamate or [(1R,2R,3R,4R)-4-{[5-({4-[(1R)-7-chloro-3,4-dihydro-1H-isochromen-1-yl]-5-methyl-2-thienyl}carbonyl)pyrimidin-4-yl]amino}-3-fluoro-2-hydroxycyclopentyl]methyl sulfamate] | – | > 8.00 | 98 | – | –
5 | C=C(c1cccc(Cl)c1)c1cc(C(=O)c2cncnc2N[C@@H]2C[C@H](COS(N)(=O)=O)[C@@H](O)C2)sc1C [I-100, [(1R,2S,4R)-4-{[5-({4-[1-(3-Chlorophenyl)vinyl]-5-methyl-2-thienyl}carbonyl)pyrimidin-4-yl]amino}-2-hydroxycyclopentyl]methyl sulfamate] | 97 | > 8.00 | – | – | –
6 | C[C@@H]1CCCN(Cc2csc(C(=O)c3cncnc3N[C@@H]3C[C@H](COS(N)(=O)=O)[C@@H](O)C3)c2)C1 (mixture of isomers) [I-225, [(1R,2S,4R)-2-hydroxy-4-({5-[(4-{[(3R)-3-methylpiperidin-1-yl]methyl}-2-thienyl)carbonyl]pyrimidin-4-yl}amino)cyclopentyl]methyl sulfamate and [(1R,2S,4R)-2-hydroxy-4-({5-[(4-{[(3S)-3-methylpiperidin-1-yl]methyl}-2-thienyl)carbonyl]pyrimidin-4-yl}amino)cyclopentyl]methyl sulfamate] | – | 6.00 to 7.00 | 33 | – | –
7 | CC(N)(c1cccc(Cl)c1)c1csc(C(=O)c2cncnc2N[C@@H]2C[C@H](COS(N)(=O)=O)[C@@H](O)[C@H]2O)c1 (single isomer, unassigned) [I-8b, [(1R,2R,3S,4R)-4-{[5-({4-[(1S)-1-amino-1-(3-chlorophenyl)ethyl]-2-thienyl}carbonyl)pyrimidin-4-yl]amino}-2,3-dihydroxycyclopentyl]methyl sulfamate or [(1R,2R,3S,4R)-4-{[5-({4-[(1R)-1-amino-1-(3-chlorophenyl)ethyl]-2-thienyl}carbonyl)pyrimidin-4-yl]amino}-2,3-dihydroxycyclopentyl]methyl sulfamate] | – | > 8.00 | 99 | – | –
8 | Cc1nc2c(s1)[C@H](c1cc(C(=O)c3cncnc3N[C@@H]3C[C@H](COS(N)(=O)=O)[C@@H](O)C3)sc1C)OCC2 (single isomer, unassigned) [I-305b, [(1R,2S,4R)-2-hydroxy-4-{[5-({5-methyl-4-[(4S)-2-methyl-6,7-dihydro-4H-pyrano[4,3-d][1,3]thiazol-4-yl]-2-thienyl}carbonyl)pyrimidin-4-yl]amino}cyclopentyl]methyl sulfamate or [(1R,2S,4R)-2-hydroxy-4-{[5-({5-methyl-4-[(4R)-2-methyl-6,7-dihydro-4H-pyrano[4,3-d][1,3]thiazol-4-yl]-2-thienyl}carbonyl)pyrimidin-4-yl]amino}cyclopentyl]methyl sulfamate] | – | – | – | 98 | < 10
9 | Cc1sc(C(=O)c2cncnc2N[C@@H]2C[C@H](COS(N)(=O)=O)[C@@H](O)C2)cc1[C@@H]1c2cc(Cl)ccc2CCN1C [I-306, [(1R,2S,4R)-4-[[5-[4-[(1R)-7-Chloro-2-methyl-3,4-dihydro-1H-isoquinolin-1-yl]-5-methyl-thiophene-2-carbonyl]pyrimidin-4-yl]amino]-2-hydroxy-cyclopentyl]methyl sulfamate and 2-carbonyl]pyrimidin-4-yl]amino]-2-hydroxy-cyclopentyl]methyl sulfamate] | – | – | – | 98 | < 10
10 | C[C@](N)(c1cccc(Br)c1)c1csc(C(=O)c2cncnc2N[C@@H]2C[C@H](COS(N)(=O)=O)[C@@H](O)[C@H]2O)c1 (single isomer, unassigned) [I-27a, [(1R,2R,3S,4R)-4-{[5-({4-[(1S)-1-amino-1-(3-bromophenyl)ethyl]-2-thienyl}carbonyl)pyrimidin-4-yl]amino}-2,3-dihydroxycyclopentyl]methyl sulfamate or [(1R,2R,3S,4R)-4-{[5-({4-[(1R)-1-amino-1-(3-bromophenyl)ethyl]-2-thienyl}carbonyl)pyrimidin-4-yl]amino}-2,3-dihydroxycyclopentyl]methyl sulfamate] | – | > 8.00 | 96 | – | –
11 | Cc1sc(C(=O)c2cncnc2N[C@@H]2C[C@H](COS(N)(=O)=O)[C@@H](O)C2)cc1Sc1cccc(C(F)(F)F)c1 [I-145, [(1R,2S,4R)-2-hydroxy-4-({5-[(5-methyl-4-{[3-(trifluoromethyl)phenyl]sulfanyl}-2-thienyl)carbonyl]pyrimidin-4-yl}amino)cyclopentyl]methyl sulfamate] | 93 | > 8.00 | – | – | –
